Experiment [1] has as its system CTOS71 colorectal cancer tissue‐originated spheroids. Briefly: cell survival (trypan blue exclusion, 5 days), CTOS71. It is filed as cell-based, human. As to conditions: for pIC50: CTOS71, cellular survival, 5 days; for Ratio of survived cells (Drugs treated/Untreated), Average / Ratio of survived cells (Drugs treated/Untreated), single passage points #: CTOS#71. The text has this:
All experimental procedures were approved by the animal facility at Dokkyo Medical University (ID: 951) and were described elsewhere 10. The existence of CSCs has been experimentally proven through serial xenotransplantation and tumorigenesis 2, 14. […] These subcutaneous tumors were again subjected to enzymatic dissociation and some of the tumor cells were subcutaneously transplanted into other mice. […] Seven cases (CTOS:40, 42, 68, 71, 76, 86, 88) were used for in vitro experiments.
Modified procedures of CTOS culture 16 were described elsewhere 10. […] The culture medium was serum‐free advanced DMEM/F‐12 (GIBCO, Waltham, MA) supplemented with FGF‐2 (10 ng/mL, ReproCell, Yokohama, Japan), penicillin ([…], Wako, Osaka, Japan), streptomycin (0.1 mg/mL,Wako), gentamicin (50 μg/mL, Wako), and fungizone (0.25 μg/mL, GIBCO). DLD‐1 and HCT116 CRC cell lines were purchased from JCRB Cell Bank (Osaka, Japan) and RIKEN BioResource Center (Ibaraki, Japan), respectively. In order to estimate pharmacological side effects against normal tissues, human diploid fibroblasts were purchased (JCRB Cell Bank) as model cells. The origins of the fibroblasts were as follows: OUMS‐36 (embryo), TIG‐3 (fetal lung), TIG‐111 (dermal fibroblasts [DFs] from individual), TIG‐119 (DFs from individual), and TIG‐102 (DFs from individual). Adult DFs were purchased from Kurabo (Osaka, Japan). CRC cell lines and fibroblasts were maintained under supplier‐recommended culture conditions. Since the culture conditions are different between fibroblasts and CTOSs, we need to be cautious about the interpretation of data (i.e., lateral comparison between them). […] Colorectal CTOSs display augmented survival through maintaining epithelial structure with E‐cadherin 16. On the other hand, the establishment of conventional cell lines (adherent culture) are much less efficient because constant cell division and autonomous survival are required for the procedure. When we choose CTOSs instead of cancer cell lines, we lose the equivalent condition (adherent culture) as a trade‐off.
Each drug's half‐maximal inhibitory concentration (IC50) was calculated based on live cell number ratios (drug treated/untreated × 100%) obtained from serial dilution of drug concentration. The length of drug exposure was 5 days. Each number of live cells was counted automatically by trypan blue exclusion (LUNA automated cell counter, Logos Biosystems, Anyang, South Korea). Cancer spheroids were dispersed with serial treatments (20 min each) of TrypLE™ and Accumax™. Thus, IC50 was determined based on cellular survival, but not on proliferation.

Experiment [2] relates to NRF2 target genes in colorectal CTOSs. Kind of experiment: qRT-PCR of NRF2 and TP53 target genes in colorectal CTOSs. It is filed as cell-based, human. As to the method:
(§1) Total RNA was purified using RNAiso Plus (Takara, Osaka, Japan). Reverse transcription was performed using PrimeScript™ with gDNA Eraser (Takara). For quantifying the copy number of each mRNA, we used a StepOne™ Real‐Time PCR System (Applied Biosystems, Waltham, MA) and the Taqman® method. Data were calculated according to the modified delta‐cycle of threshold (ΔCT) method. Normalized Log2 expression was defined as follows: (Log2 expression of a gene of interest) = 30 (arbitrary constant) + (CT of 18S rRNA) − (CT of a gene of interest). We used Log2 parameter for statistical analysis because mRNA expression follows a log‐normal distribution, whereas ΔCT follows normal distribution. A gene‐specific fluorescent probe was designed using a web‐based program (https://qpcr.probefinder.com/organism.jsp). […] Gene‐specific Taqman® probes were purchased from Life Technologies, (Waltham, MA, for Cat#, see Table S1 SpreadSheet2). For PCR, Thunderbird® Probe qPCR mix (Toyobo, Osaka, Japan) was used and the PCR conditions consisted of 40 cycles of two steps (95°C for 15 sec and 60°C for 50 sec).
In order to judge the effect of drug treatments on gene expression, a repeated measures one‐way analysis of variance (ANOVA) was used to determine the variance of Log2 expression from four different groups (untreated, auranofin, CB83, and piperlongumine) using SPSS. Subsequently, the effect of each drug was determined by a paired t test as a post hoc analysis. The P‐values < 0.05 were defined as statistically significant.
In order to estimate NRF2 compensation induced by pharmacological inhibition of TXNRD (auranofin), G6PD (CB83), or GSTπ (piperlongumine), we quantified gene expression of NRF2 target genes. Activation of NRF2 protein was confirmed by NRF2 phosphorylation (Fig. S5A).

Experiment [3] concerns NRF2 target genes in human embryonic fibroblasts OUMS36 or TIG-3. Briefly: qRT-PCR of NRF2 and TP53 target genes in fibroblasts. The experiment is classed as cell-based. The following applies: auranofin 2 μmol/L or piperlongumine 5 μmol/L for 24 h. The protocol: as §1
To investigate whether NRF2 compensation occurs in fibroblasts, we quantified gene induction of NRF2 target genes by auranofin (2 μmol/L for 24 h) or piperlongumine (5 μmol/L for 24 h). […] Basal phosphorylation of NRF2 was lower in fibroblasts, compared to CTOSs (Fig. S5B). The significance of expression changes due to the exposure were as follows: GCLM (Fig. S6, Aura: P = 0.001, up‐regulated, Pipe: P = 0.009, up‐regulated), TXNRD1 (Fig. S6, Aura: P = 0.001, up‐regulated, Pipe: P = 0.439), and G6PD (Fig. S6, Aura: P = 0.001, up‐regulated, Pipe: P = 0.130).
Human embryonic fibroblasts OUMS36 or TIG-3 was incubated with designated concentration of inhibitor for 24 hours. mRNA expression of each gene was quantified by real-time RT-PCR and expression level was indicated as relative Log2 expression. Each bar indicates mean value of Log2 expression (n=3 at different passage points). Error bar indicates standard deviation. P-values of difference are described in Results.

Where [4] appears, read: higher dose (auranofin 4, CB83 25, piperlongumine 10 μmol/L) for 24 h.
[5] abbreviates: lower dose (auranofin 2, CB83 12.5, piperlongumine 5 μmol/L) for 48 h.

The text below walks through data of publication PMC5055185, “Dual pharmacological inhibition of glutathione and thioredoxin systems synergizes to kill colorectal carcinoma stem cells” (Cancer Medicine, 2016).

pIC50: −log10 of the molar value. Values joined by “and” are separate entries in the source; they are usually repeats but may differ in a detail not shown here. Equal values may be shown once.

With `CC[PH](CC)(CC)[Au][S][C@@H]1O[C@H](COC(C)=O)[C@@H](OC(C)=O)[C@H](OC(C)=O)[C@H]1OC(C)=O` [Aura, Auranofin], the pIC50 in experiment [1] was 5.66. Besides, in experiment [1] (Aura 1 microM), the “Ratio of survived cells (Drugs treated/Untreated), Average” value worked out at 70.2%; the “Ratio of survived cells (Drugs treated/Untreated), single passage points #” value was 81% and 77% and 62% and 56% and 75%. Moreover, in experiment [1] (Aura 2 microM), the “Ratio of survived cells (Drugs treated/Untreated), Average” value is given as 55.3333%. Also, in experiment [1] (Aura 4 microM), the “Ratio of survived cells (Drugs treated/Untreated), Average” value came out at 33.1429%. Besides, in experiment [2] (setting [4]), the “G6PD mRNA expression change” value was “up‐regulated”, the “GCLM mRNA expression change” value is recorded as “up‐regulated” and the “TXNRD1 mRNA expression change” value is “up‐regulated”. In experiment [2] (setting [5]), the “G6PD mRNA expression change” value was “up‐regulated”, the “GCLC mRNA expression change” value was “up‐regulated”, the “GCLM mRNA expression change” value was “up‐regulated” and the “ME1 mRNA expression change” value is given as “up‐regulated”. Further, in experiment [2] (setting [5]), the “TXN mRNA expression change” value is “up‐regulated” and the “TXNRD1 mRNA expression change” value is given as “up‐regulated”. For the same compound, in experiment [3], the “G6PD mRNA expression change” value is reported as “up‐regulated”, the “GCLM mRNA expression change” value is recorded as “up‐regulated” and the “TXNRD1 mRNA expression change” value is recorded as “up‐regulated”.

Regarding `COc1cc(/C=C/C(=O)N2CCC=CC2=O)cc(OC)c1OC` [Pipe, Piperlongumine], the pIC50 in experiment [1] was 5.22. Further, the “Ratio of survived cells (Drugs treated/Untreated), Average” value was found to be 80.8% in experiment [1] (Pipe 2.5 microM), 60.8% in experiment [1] (Pipe 5 microM) and 27.8% in experiment [1] (Pipe 10 microM). Also, the “Ratio of survived cells (Drugs treated/Untreated), single passage points #” value in experiment [1] (Pipe 2.5 microM) was 96% and 59% and 102% and 88%; in experiment [1] (Pipe 10 microM) it was 21% and 20% and 35% and 27% and 36%. In addition, the “G6PD mRNA expression change” value in experiment [2] (setting [4]) and in experiment [2] (setting [5]) was “up‐regulated” throughout. Besides, the “GCLM mRNA expression change” value in experiment [2] (setting [4]), in experiment [2] (setting [5]) and in experiment [3] was “up‐regulated” each time. Further, the “TXNRD1 mRNA expression change” value in experiment [2] (setting [4]) and in experiment [2] (setting [5]) was “up‐regulated” each time.
